SMILES strings stand for the structures. ≈ marks a conversion by molar mass, not a printed value. Calls of active or inactive are those of the source. The rule behind the calls is not given here.

The text below walks through data of ChEMBL document CHEMBL1156351, “A new isoquinoline alkaloid from the marine sponge Haliclona species” (J Nat Prod, 2001).

Format in all cases: functional, cell-based
In assay [1] the test system is OVCAR-3. Briefly: Cytotoxicity against human OVCAR-3 cells at 50 ug/mL after 2 days by XTT assay. In general terms: Formazan colour is commonly taken as a measure of viable cells.
The next assay deals with LOX. Briefly: Cytotoxicity against human LOX cells at 50 ug/mL after 2 days by XTT assay.
For assay [2], the system named is OVCAR-3. Briefly: Cytotoxicity against human OVCAR-3 cells after 2 days by XTT assay. To be noted: OVCAR-3, 48 h.
Assay [3] is described as follows: Cytotoxicity against human LOX cells after 2 days by XTT assay. To be noted: 48 h.

`COc1cc2c(CO)nccc2cc1O`: the outcome in the assay on OVCAR-3 [1] and with LOX was inactive.

On to `COC1=C(C)C(=O)c2cc(=O)n(C)c(C)c2C1=O` [MIMOSAMYCIN], for which the IC50 (in the assay with OVCAR-3 [2]; in assay [3]) was 10 µg/mL (≈ 40.4 µM) throughout.

Usually IC50 stands for the concentration at which inhibition is half-maximal. A lower IC50 goes with inhibition by little substance.
